The record followed here is patent US9453026B2, “ACC inhibitors and uses thereof” (Gilead Apollo, Inc., priority 2011, dated 2016).

The target of this experiment is ACC2 (Homo sapiens, UniProt O00763). Kind of experiment: In vitro ACC2 inhibition assay (ADP-Glo). The experiment is classed as biochemical. The settings on record: read-out: ACC2. Here is the method:
An exemplary procedure for the in vitro ACC inhibition assay, which can be used to determine the inhibitory action of compounds of the invention toward either ACC1 or ACC2, follows. The ADP-Glo™ Kinase Assay kit from Promega was used. The ADP-Glo™ Kinase Assay is a luminescent ADP detection assay to measure enzymatic activity by quantifying the amount of ADP produced during an enzyme reaction. The assay is performed in two steps; first, after the enzyme reaction, an equal volume of ADP-Glo™ Reagent is added to terminate the reaction and deplete the remaining ATP. Second, the Kinase Detection Reagent is added to simultaneously convert ADP to ATP and allow the newly synthesized ATP to be measured using a luciferase/luciferin reaction. Luminescence can be correlated to ADP concentrations by using an ATP-to-ADP conversion curve. The detailed procedure is as follows. 50 μL of the compound being tested (600 uM in DMSO) was added to a 384-well dilution plate. The compound was diluted 1:3 in succession in DMSO for each row for 11 wells. 0.5 μL ACC2 working solution was added to 384-well white Optiplate assay plate. 0.5 μL diluted compound solution in each column from step 2 to assay plate, each row containing 2 replicates. […] The plates were incubated at room temperature for 15 minutes. 5 μL substrate working solution was added to each well to initiate reaction. […] Plates were incubated at room temperature for 60 minutes. 10 μL ADP glo reagent was added. Plates were incubated at room temperature for 40 minutes. 20 μL kinase detection reagent was added.
Data for each concentration, as well as the positive and negative controls were averaged, and the standard deviation calculated. Percent inhibition was calculated by the formula: 100× (average negative control−compound)/(average negative control−average positive control). The IC50 for each compound was calculated by fitting the data with a non-linear regression equation: Y=Bottom+(Top-Bottom)/(1+10^((Log IC50−X)*HillSlope)), where X is the log of compound concentration and Y is percent inhibition.
The compound numbers correspond to the compound numbers in Table 1.

Sequence of ACC2 (O00763 whole entry, species assumed): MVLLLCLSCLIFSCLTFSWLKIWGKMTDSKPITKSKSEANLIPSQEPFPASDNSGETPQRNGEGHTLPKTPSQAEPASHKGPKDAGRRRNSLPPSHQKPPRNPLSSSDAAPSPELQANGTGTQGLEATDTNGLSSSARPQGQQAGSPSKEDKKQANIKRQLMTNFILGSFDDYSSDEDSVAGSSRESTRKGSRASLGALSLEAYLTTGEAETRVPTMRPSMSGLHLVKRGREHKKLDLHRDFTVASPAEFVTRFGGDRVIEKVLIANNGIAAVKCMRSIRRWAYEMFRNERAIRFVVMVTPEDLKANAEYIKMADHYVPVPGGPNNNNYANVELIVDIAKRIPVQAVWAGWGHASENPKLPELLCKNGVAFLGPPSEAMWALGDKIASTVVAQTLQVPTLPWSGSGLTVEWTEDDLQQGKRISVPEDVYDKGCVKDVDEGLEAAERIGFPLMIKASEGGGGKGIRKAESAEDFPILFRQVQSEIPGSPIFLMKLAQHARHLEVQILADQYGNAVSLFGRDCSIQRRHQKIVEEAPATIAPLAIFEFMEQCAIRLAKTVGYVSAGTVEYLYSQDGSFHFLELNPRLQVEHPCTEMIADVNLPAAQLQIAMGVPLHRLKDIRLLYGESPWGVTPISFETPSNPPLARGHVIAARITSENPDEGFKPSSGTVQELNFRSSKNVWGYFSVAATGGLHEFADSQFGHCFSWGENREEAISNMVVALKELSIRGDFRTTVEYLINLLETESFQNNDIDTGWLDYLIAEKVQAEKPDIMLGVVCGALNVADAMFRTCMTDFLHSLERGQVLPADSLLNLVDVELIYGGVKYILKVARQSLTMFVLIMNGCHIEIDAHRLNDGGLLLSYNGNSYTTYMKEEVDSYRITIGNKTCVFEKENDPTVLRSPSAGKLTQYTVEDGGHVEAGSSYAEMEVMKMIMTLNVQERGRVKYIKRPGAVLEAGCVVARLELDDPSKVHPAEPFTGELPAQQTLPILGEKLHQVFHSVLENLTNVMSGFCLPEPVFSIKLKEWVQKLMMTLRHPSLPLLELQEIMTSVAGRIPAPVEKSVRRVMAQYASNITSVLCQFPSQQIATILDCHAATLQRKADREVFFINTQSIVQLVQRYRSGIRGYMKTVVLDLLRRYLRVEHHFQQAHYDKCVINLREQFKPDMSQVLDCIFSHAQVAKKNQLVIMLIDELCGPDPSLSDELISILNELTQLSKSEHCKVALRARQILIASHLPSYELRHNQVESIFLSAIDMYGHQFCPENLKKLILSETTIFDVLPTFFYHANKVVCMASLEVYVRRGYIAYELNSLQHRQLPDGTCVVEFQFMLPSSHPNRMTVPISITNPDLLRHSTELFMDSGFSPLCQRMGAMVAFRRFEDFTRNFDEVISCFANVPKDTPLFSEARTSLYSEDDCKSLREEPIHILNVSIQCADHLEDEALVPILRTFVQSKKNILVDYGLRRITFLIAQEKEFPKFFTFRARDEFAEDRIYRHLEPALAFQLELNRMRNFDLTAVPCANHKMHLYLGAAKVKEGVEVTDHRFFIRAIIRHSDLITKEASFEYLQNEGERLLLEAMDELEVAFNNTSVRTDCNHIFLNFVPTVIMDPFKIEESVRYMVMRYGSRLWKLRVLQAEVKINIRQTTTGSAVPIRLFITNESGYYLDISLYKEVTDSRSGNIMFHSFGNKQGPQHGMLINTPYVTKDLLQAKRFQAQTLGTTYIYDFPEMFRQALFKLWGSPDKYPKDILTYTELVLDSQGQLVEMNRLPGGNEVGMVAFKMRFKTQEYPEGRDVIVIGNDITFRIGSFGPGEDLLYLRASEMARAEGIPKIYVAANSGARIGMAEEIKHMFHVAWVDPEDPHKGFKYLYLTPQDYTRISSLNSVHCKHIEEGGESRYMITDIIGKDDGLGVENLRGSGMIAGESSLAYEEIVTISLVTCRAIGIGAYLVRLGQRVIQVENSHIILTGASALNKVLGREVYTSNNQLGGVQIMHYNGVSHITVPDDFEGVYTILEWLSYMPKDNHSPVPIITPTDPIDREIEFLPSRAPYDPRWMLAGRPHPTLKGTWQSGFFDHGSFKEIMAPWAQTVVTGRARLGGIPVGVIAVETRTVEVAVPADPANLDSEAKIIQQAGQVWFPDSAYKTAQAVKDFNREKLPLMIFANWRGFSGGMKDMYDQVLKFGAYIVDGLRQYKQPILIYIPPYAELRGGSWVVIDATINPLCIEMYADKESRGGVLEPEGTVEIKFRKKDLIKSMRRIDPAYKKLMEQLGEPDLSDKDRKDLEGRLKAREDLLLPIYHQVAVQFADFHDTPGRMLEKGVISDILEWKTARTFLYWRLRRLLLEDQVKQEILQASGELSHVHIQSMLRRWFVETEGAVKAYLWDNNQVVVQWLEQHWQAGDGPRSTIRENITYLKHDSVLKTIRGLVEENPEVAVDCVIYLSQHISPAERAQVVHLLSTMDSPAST

Take `CCOC(=O)c1sc2c(c1C)c(=O)n(CC(=O)O)c(=O)n2CC(=O)c1ccccc1` [I-73, 2-[6-(ethoxycarbonyl)-5-methyl-2,4-dioxo-1-(2-oxo-2-phenylethyl)-1H,2H,3H,4H-thieno[2,3-d]pyrimidin-3-yl]acetic acid]: the IC50 lay in the range of 20 to 50 µM.
Under `CCOC(=O)c1sc2c(c1C)c(=O)n(CC(=O)O)c(=O)n2Cc1ccc2ccn(C)c2c1` [I-74, 2-[6-(ethoxycarbonyl)-5-methyl-1-[(1-methyl-1H-indol-6-yl)methyl]-2,4-dioxo-1H,2H,3H,4H-thieno[2,3-d]pyrimidin-3-yl]acetic acid] stands 5 to 20 µM; under `COCc1sc2c(c1C)c(=O)n(CC(=O)O)c(=O)n2CCc1ccccc1` [I-75, 2-[6-(methoxymethyl)-5-methyl-2,4-dioxo-1-(2-phenylethyl)-1H,2H,3H,4H-thieno[2,3-d]pyrimidin-3-yl]acetic acid], 5 to 20 µM.
The result for `CCOC(=O)c1sc2c(c1C)c(=O)n([C@H](C)C(=O)O)c(=O)n2CCc1ccccc1` [I-76, (2R)-2-[6-(ethoxycarbonyl)-5-methyl-2,4-dioxo-1-(2-phenylethyl)-1H,2H,3H,4H-thieno[2,3-d]pyrimidin-3-yl]propanoic acid] reads under 5 µM; that for `CCOC(=O)c1sc2c(c1C)c(=O)n(CC(=O)O)c(=O)n2C[C@@H](O)c1ccccc1` [I-77, 2-[6-(ethoxycarbonyl)-1-[(2S)-2-hydroxy-2-phenylethyl]-5-methyl-2,4-dioxo-1H,2H,3H,4H-thieno[2,3-d]pyrimidin-3-yl]acetic acid], 5 to 20 µM; that for `CCOC(=O)c1sc2c(c1C)c(=O)n(CC(=O)O)c(=O)n2C[C@H](O)c1ccccc1` [I-78, 2-[6-(ethoxycarbonyl)-1-[(2R)-2-hydroxy-2-phenylethyl]-5-methyl-2,4-dioxo-1H,2H,3H,4H-thieno[2,3-d]pyrimidin-3-yl]acetic acid], under 5 µM.
As for `CCOC(=O)c1sc2c(c1C)c(=O)n(CC(C)(C)O)c(=O)n2CCc1ccccc1` [I-79, ethyl 3-(2-hydroxy-2-methylpropyl)-5-methyl-2,4-dioxo-1-(2-phenylethyl)-1H,2H,3H,4H-thieno[2,3-d]pyrimidine-6-carboxylate], the IC50 fell in the range of 5 to 20 µM.
The result for `CCOC(=O)c1sc2c(c1C)c(=O)n([C@@H](C)C(=O)O)c(=O)n2CCc1ccccc1` [I-80, (2S)-2-[6-(ethoxycarbonyl)-5-methyl-2,4-dioxo-1-(2-phenylethyl)-1H,2H,3H,4H-thieno[2,3-d]pyrimidin-3-yl]propanoic acid] reads under 5 µM; that for `CCOC(=O)c1sc2c(c1C)c(=O)n(C[C@@H](C)O)c(=O)n2CCc1ccccc1` [I-81, ethyl 3-[(2R)-2-hydroxypropyl]-5-methyl-2,4-dioxo-1-(2-phenylethyl)-1H,2H,3H,4H-thieno[2,3-d]pyrimidine-6-carboxylate], 5 to 20 µM; that for `CCOC(=O)c1sc2c(c1C)c(=O)n(C[C@H](C)O)c(=O)n2CCc1ccccc1` [I-82, ethyl 3-[(2S)-2-hydroxypropyl]-5-methyl-2,4-dioxo-1-(2-phenylethyl)-1H,2H,3H,4H-thieno[2,3-d]pyrimidine-6-carboxylate], 5 to 20 µM.
The result for `Cc1c(C(=O)OCCO)sc2c1c(=O)n(CC(=O)O)c(=O)n2CCc1ccccc1` [I-83, 2-[6-[(2-hydroxyethoxy)carbonyl]-5-methyl-2,4-dioxo-1-(2-phenylethyl)-1H,2H,3H,4H-thieno[2,3-d]pyrimidin-3-yl]acetic acid] reads under 5 µM; that for `CCOC(=O)c1sc2c(c1C)c(=O)n(CC(=O)O)c(=O)n2CCc1nc2ccccc2s1` [I-84, 2-[1-[2-(1,3-benzothiazol-2-yl)ethyl]-6-(ethoxycarbonyl)-5-methyl-2,4-dioxo-1H,2H,3H,4H-thieno[2,3-d]pyrimidin-3-yl]acetic acid], over 50 µM; that for `CCOC(=O)c1sc2c(c1C)c(=O)n(CC(=O)O)c(=O)n2CC(OC(C)=O)c1ccccc1` (stereo not drawn) [I-85, 2-[1-[2-(acetyloxy)-2-phenylethyl]-6-(ethoxycarbonyl)-5-methyl-2,4-dioxo-1H,2H,3H,4H-thieno[2,3-d]pyrimidin-3-yl]acetic acid], under 5 µM.
`Cc1c(C(=O)OC2CCC2)sc2c1c(=O)n(CC(=O)O)c(=O)n2CCc1ccccc1` [I-86, 2-[6-(cyclobutoxycarbonyl)-5-methyl-2,4-dioxo-1-(2-phenylethyl)-1H,2H,3H,4H-thieno[2,3-d]pyrimidin-3-yl]acetic acid]: the IC50 was in the range of 5 to 20 µM.
As to `Cc1c(C2=NCCO2)sc2c1c(=O)n(CC(=O)O)c(=O)n2CCc1ccccc1` [I-87, 2-[6-(4,5-dihydro-1,3-oxazol-2-yl)-5-methyl-2,4-dioxo-1-(2-phenylethyl)-1H,2H,3H,4H-thieno[2,3-d]pyrimidin-3-yl]acetic acid], the IC50 was under 5 µM.
The result for `CCOC(=O)c1sc2c(c1C)c(=O)n(CC(=O)O)c(=O)n2Cc1cc2ccccc2[nH]1` [I-88, 2-[6-(ethoxycarbonyl)-1-(1H-indol-2-ylmethyl)-5-methyl-2,4-dioxo-1H,2H,3H,4H-thieno[2,3-d]pyrimidin-3-yl]acetic acid] reads over 50 µM.
Take `CCOC(=O)c1sc2c(c1C)c(=O)n(CC(=O)O)c(=O)n2Cc1ccc2[nH]ccc2c1` [I-90, 2-[6-(ethoxycarbonyl)-1-(1H-indol-5-ylmethyl)-5-methyl-2,4-dioxo-1H,2H,3H,4H-thieno[2,3-d]pyrimidin-3-yl]acetic acid]: the IC50 lay in the range of 20 to 50 µM.
The result for `CCOC(=O)c1cc2c(=O)n(CC(=O)O)c(=O)n(CCc3ccccc3)c2s1` [I-91, 2-[6-(ethoxycarbonyl)-2,4-dioxo-1-(2-phenylethyl)-1H,2H,3H,4H-thieno[2,3-d]pyrimidin-3-yl]acetic acid] reads 5 to 20 µM.
Turning to `Cc1c(-c2ncco2)sc2c1c(=O)n(CC(=O)O)c(=O)n2CCc1ccccc1` [I-92, 2-[5-methyl-6-(1,3-oxazol-2-yl)-2,4-dioxo-1-(2-phenylethyl)-1H,2H,3H,4H-thieno[2,3-d]pyrimidin-3-yl]acetic acid], the IC50 is under 5 µM.
The result for `CCOC(=O)c1sc2c(c1C(F)(F)F)c(=O)n(CC(=O)O)c(=O)n2CCc1ccccc1` [I-94, 2-[6-(ethoxycarbonyl)-2,4-dioxo-1-(2-phenylethyl)-5-(trifluoromethyl)-1H,2H,3H,4H-thieno[2,3-d]pyrimidin-3-yl]acetic acid] reads under 5 µM.
Under `CCOC(=O)c1sc2c(c1C)c(=O)n(C(C)(C)C(=O)O)c(=O)n2CCc1ccc(I)cc1` [I-95, 2-[6-(ethoxycarbonyl)-1-[2-(4-iodophenyl)ethyl]-5-methyl-2,4-dioxo-1H,2H,3H,4H-thieno[2,3-d]pyrimidin-3-yl]-2-methylpropanoic acid] stands 20 to 50 µM; under `CCOC(=O)c1sc2c(c1C)c(=O)n(C(C)(C)C(=O)O)c(=O)n2CCc1ccccc1O` [I-99, 2-[6-(ethoxycarbonyl)-1-[2-(2-hydroxyphenyl)ethyl]-5-methyl-2,4-dioxo-1H,2H,3H,4H-thieno[2,3-d]pyrimidin-3-yl]-2-methylpropanoic acid], under 5 µM; under `CCOC(=O)c1sc2c(c1C)c(=O)n(CC(=O)O)c(=O)n2CC(OC(=O)COC)c1ccccc1` (stereo not drawn) [I-101, 2-[6-(ethoxycarbonyl)-1-[2-[(2-methoxyacetyl)oxy]-2-phenylethyl]-5-methyl-2,4-dioxo-1H,2H,3H,4H-thieno[2,3-d]pyrimidin-3-yl]acetic acid], 5 to 20 µM.
The result for `CCOC(=O)c1sc2c(c1C)c(=O)n(C(C)(C)C(=O)O)c(=O)n2C[C@@H](O)c1ccccc1` [I-102, 2-[6-(ethoxycarbonyl)-1-[(2S)-2-hydroxy-2-phenylethyl]-5-methyl-2,4-dioxo-1H,2H,3H,4H-thieno[2,3-d]pyrimidin-3-yl]-2-methylpropanoic acid] reads 5 to 20 µM.
Regarding `CCOC(=O)c1sc2c(c1C)c(=O)n(CC(=O)O)c(=O)n2C[C@@H](OC)c1ccccc1` [I-104, 2-[6-(ethoxycarbonyl)-1-[(2S)-2-methoxy-2-phenylethyl]-5-methyl-2,4-dioxo-1H,2H,3H,4H-thieno[2,3-d]pyrimidin-3-yl]acetic acid], the IC50 is 20 to 50 µM.
Under `CCOC(=O)c1sc2c(c1C)c(=O)n(C(C)(C)C(=O)O)c(=O)n2CCc1ccccc1OC(F)(F)F` [I-106, 2-[6-(ethoxycarbonyl)-5-methyl-2,4-dioxo-1-[2-[2-(trifluoromethoxy)phenyl]ethyl]-1H,2H,3H,4H-thieno[2,3-d]pyrimidin-3-yl]-2-methylpropanoic acid] stands under 5 µM; under `CCOC(=O)c1sc2c(c1C)c(=O)n(C(C)(C)C(N)=O)c(=O)n2CCc1ccccc1` [I-107, ethyl 3-(1-carbamoyl-1-methylethyl)-5-methyl-2,4-dioxo-1-(2-phenylethyl)-1H,2H,3H,4H-thieno[2,3-d]pyrimidine-6-carboxylate], under 5 µM.
